Results reported in PMC6272127, “Synthesis, Antiproliferative Activity and Molecular Properties Predictions of Galloyl Derivatives” (Molecules, 2015).
≈ marks a conversion by molar mass, not a printed value. Read-outs that look alike come from different tables or passages of the source.

Columns and labels:
786-0 (renal) = experiment: cells; assay type: cell-based; conditions: for TGI: 786-0, total growth inhibition, 48 h; for GI50: SRB
Protocol: (§1) The experiments were performed in triplicate.

[1] = system: NCI-ADR/RES (breast expressing the multiple drug resistance phenotype); experiment: cells; assay type: cell-based; conditions: NCI/ADR-RES, 48 h; for GI50: SRB; for TGI: total growth inhibition
Protocol: as §1

K-562 (leukemia) = experiment: cells; assay type: cell-based; conditions: for GI50: K-562, 48 h, SRB
Protocol: as §1

[2] = system: NCI-H460 (lung, non-small cells); experiment: cells; assay type: cell-based; conditions: for GI50: NCI-H460, 48 h, SRB; for TGI: NCI-H460, total growth inhibition, 48 h
Protocol: as §1

PC-3 (prostate) = experiment: cells; assay type: cell-based; conditions: for GI50: PC-3, 48 h, SRB; for TGI: PC-3, total growth inhibition
Protocol: as §1

OVCAR-3 (ovarian) = experiment: Anticancer assay in vitro (sulforhodamine B), OVCAR-3; assay type: cell-based; conditions: for GI50: OVCAR-3, 48 h, SRB; for TGI: OVCAR-3, total growth inhibition, 48 h
Protocol: as §1

U251 (glioma, CNS) = experiment: cells; conditions: for TGI: U251, total growth inhibition, 48 h
Protocol: The GI50 values (growth inhibitory activity) (Table 1) refer to the drug concentration that produces a 50% reduction of cellular growth compared with the untreated control cells. The TGI (cytostatic activity) and LC50 (cytotoxic activity) values (Table 2) refer to the drug concentration required for total growth inhibition and killing 50% of the cells, respectively.
The synthesized compounds were assessed in the following ten human tumor cell lines from various tissues kindly provide by the National Cancer Institute (Frederick, MD, USA): U251 (glioma, CNS), MCF-7 (breast), NCI-ADR/RES (breast expressing the multiple drug resistance phenotype), 786-0 (renal), NCI-H460 (lung, non-small cells), PC-3 (prostate), OVCAR-3 (ovarian), HT-29 (colon), K-562 (leukemia) and HaCaT (keratinocytes). Stock cultures were grown in media containing 5 mL of RPMI 1640 (Gibco BRL) supplemented with 5% fetal bovine serum. Gentamicin ([…]) was added to the experimental cultures. Cells in 96-well plates (100 µL cells/well) were exposed to sample concentrations in DMSO/RPMI (0.25, 2.5, 25, and 250 µg/mL) at 37 °C and 5% CO2 for 48 h. […] Next, cells were fixed with 50% trichloroacetic acid, and cell proliferation was determined by spectrophotometric quantification (540 nm) of cellular protein content employing the sulforhodamine B assay. Doxorubicin (0.025–25 µg/mL) was used as a positive control. Three measurements were obtained: first at time point zero (T0, at the beginning of incubation) and then 48 h post-incubation for both the compound-free (C) and tested (T) cells. Cell proliferation was determined using the equation 100 × [(T − T0)/C − T0]. A cytostatic effect was observed when T ≥ T0, while a cytocidal effect occurred when T < T0. The experiments were performed in triplicate.

HT-29 (colon) = experiment: Anticancer assay in vitro (sulforhodamine B), HT-29; assay type: cell-based; conditions: for TGI: HT-29, total growth inhibition, 48 h; for GI50: HT-29, 48 h, SRB
Protocol: as §1

MCF-7 (breast) = experiment: Anticancer assay in vitro (sulforhodamine B), MCF-7; assay type: cell-based; conditions: for GI50: MCF-7, 48 h, SRB; for TGI: MCF-7, total growth inhibition
Protocol: as §1

HaCaT (keratinocytes) = experiment: Anticancer assay in vitro (sulforhodamine B), HaCaT; assay type: cell-based; conditions: 48 h; for GI50: SRB; for TGI: total growth inhibition
Protocol: as §1

[3] = as above; assay type: cell-based; conditions: human, HaCaT keratinocytes, killing 50% of cells, read-out: LC50
Protocol: as §1

[4] = system: ten human tumor cell lines; experiment: Anticancer assay in vitro (sulforhodamine B), statements over the panel of cell lines; assay type: cell-based; conditions: bound or range over all (for 4: nine) human tumor cell lines, read-out: GI50 values over the cell lines tested
Protocol: as §1

[5] = K-562, total growth inhibition, 48 h

Row | Compound | TGI (786-0 (renal)) | GI50 (786-0 (renal); Homo sapiens, 786-0, 48 h) | GI50 ([1]; Homo sapiens) | TGI [1] | GI50 (K-562 (leukemia); Homo sapiens, K562) | TGI (K-562 (leukemia); [5]) | GI50 ([2]; Homo sapiens) | TGI [2] | GI50 (PC-3 (prostate); Homo sapiens) | TGI (PC-3 (prostate); 48 h) | GI50 (OVCAR-3 (ovarian); Homo sapiens) | TGI (OVCAR-3 (ovarian)) | GI50 (U251 (glioma, CNS); Homo sapiens, U-251, 48 h) | TGI (U251 (glioma, CNS)) | TGI (HT-29 (colon)) | GI50 (HT-29 (colon); Homo sapiens) | GI50 (MCF-7 (breast); Homo sapiens, MCF7) | TGI (MCF-7 (breast); 48 h) | GI50 (HaCaT (keratinocytes); Homo sapiens) | TGI (HaCaT (keratinocytes)) | further results
1 | COc1cccc2c1C(=O)c1c(O)c3c(c(O)c1C2=O)C[C@@](O)(C(=O)CO)C[C@@H]3O[C@H]1C[C@H](N)[C@H](O)[C@H](C)O1 [Dox, Doxorubicin, reference compound] | 0.51 µg/mL (≈ 0.938 µM) | 0.04 µM | 0.2 µM | 22.42 µg/mL (≈ 41.2 µM) | 0.03 µM | 2.60 µg/mL | 0.01 µM | 3.73 µg/mL (≈ 6.86 µM) | 0.18 µM | 1.03 µg/mL (≈ 1.9 µM) | 0.02 µM | 1.47 µg/mL (≈ 2.7 µM) | 0.02 µM | 2.68 µg/mL (≈ 4.93 µM) | 26.03 µg/mL (≈ 47.9 µM) | 0.09 µM | 0.01 µM | 2.52 µg/mL (≈ 4.64 µM) | 0.01 µM | 0.77 µg/mL (≈ 1.42 µM) | CC50 (786-0 (renal); Homo sapiens, 786-0, 48 h, read-out: LC50): 17.8 µg/mL (≈ 32.8 µM); CC50 (K-562 (leukemia); Homo sapiens, K562, 48 h, read-out: LC50): 20.1 µg/mL (≈ 37 µM); CC50 (PC-3 (prostate); Homo sapiens, 48 h, read-out: LC50): 7.95 µg/mL (≈ 14.6 µM)
2 | CN(C)c1ccc(/C=N/NC(=O)c2cc(O)c(O)c(O)c2)cc1 [Compound 5, N'-(4-Dimethylaminobenzylidene)galloyl hydrazide] | – | 8.93 µM | 4.68 µM | 83.07 µg/mL (≈ 263 µM) | 2.05 µM | 8.98 µg/mL | 21.6 µM | – | – | – | 2.93 µM | 41.52 µg/mL (≈ 132 µM) | 24.1 µM | – | 48.50 µg/mL (≈ 154 µM) | 16.2 µM | 8.61 µM | 20.26 µg/mL (≈ 64.3 µM) | 4.05 µM | 18.41 µg/mL (≈ 58.4 µM) | TGI (K-562 (leukemia); K-562, as printed in the text): 8.98 µM; CC50 (MCF-7 (breast); Homo sapiens, MCF7, MCF-7, killing 50% of cells, 48 h, read-out: LC50 (the source's name)): 47.9 µg/mL (≈ 152 µM); CC50 at 48 h [3]: 55.3 µg/mL (≈ 175 µM)
3 | O=C(N/N=C/c1ccccc1)c1cc(O)c(O)c(O)c1 [Compound 4, N'-(Benzylidene)galloyl hydrazide] | – | 9.06 µM | 7.16 µM | – | 9.96 µM | – | 11.2 µM | – | 5.07 µM | – | 1.24 µM | 29.61 µg/mL (≈ 109 µM) | 7.8 µM | – | – | 7.53 µM | 5.55 µM | 23.54 µg/mL (≈ 86.5 µM) | 8.29 µM | – | GI50 ([4]; Homo sapiens): 1.24 to 9.96 µM
4 | Galloyl-2-thioxo-1,3,4-oxadiazole [Compound 9] | 24.68 µg/mL | – | – | 15.86 µg/mL | – | 11.35 µg/mL | – | 19.43 µg/mL | – | 18.09 µg/mL | – | 13.62 µg/mL | – | 14.58 µg/mL | 13.74 µg/mL | – | – | 5.06 µg/mL | – | 16.53 µg/mL | GI50 [4]: < 8.9 µM; GI50 (786-0 (renal); 786-0, 48 h): 8.9 µM; GI50 [1]: 2.83 µM; LC50 (K-562 (leukemia)): (58.99) µg/mL; GI50 (K-562 (leukemia)): 1.72 µM; LC50 [2]: (42.67) µg/mL; GI50 [2]: 8.77 µM; LC50 (PC-3 (prostate)): (56.99) µg/mL; GI50 (PC-3 (prostate)): 6.05 µM; LC50 (OVCAR-3 (ovarian)): (58.99) µg/mL; GI50 (OVCAR-3 (ovarian)): 0.89 µM; LC50 (U251 (glioma, CNS)): (41.26) µg/mL; GI50 (U251 (glioma, CNS); U251, 48 h, SRB): 4.2 µM; LC50 (HT-29 (colon)): (58.99) µg/mL; GI50 (HT-29 (colon)): 2.61 µM; GI50 (MCF-7 (breast)): 1.08 µM; GI50 (HaCaT (keratinocytes)): 2.25 µM
